Experimental data taken from patent publication US8048927B2 (Besins Healthcare Luxembourg, priority 2004, dated 2011).

Columns and labels:
[1] = percutaneous [^3H]-4-hydroxy tamoxifen delivery in breast cancer patients (Example 1)
Description: The patients received [^3H]-labeled drug applied directly on the affected breasts at specified intervals ranging from 12 hours to 7 days before surgery to excise diseased tissue. Breast tissue from three regions: the tumor, tissue immediately surrounding the tumor, and normal tissue, was excised and immediately frozen in liquid nitrogen. Additionally, plasma and urine samples were obtained at scheduled intervals and frozen until analysis.

[2] = Group 1: PO tamoxifen 20 mg/day (10 mg b.i.d.), 3-4 weeks; cited from earlier work
[3] = test system: rat liver; conditions: cited from earlier work
[4] = test system: p53(−) normal human mammary epithelial cells; conditions: cited from earlier work
[5] = biological target: T1, estrone sulphatase (Homo sapiens, UniProt P08842); conditions: mammary cancer cell lines; cited from earlier work
T1 construct: estrone sulphatase activity in mammary cancer cell lines; endogenous in cells
T1 sequence (P08842 22-583): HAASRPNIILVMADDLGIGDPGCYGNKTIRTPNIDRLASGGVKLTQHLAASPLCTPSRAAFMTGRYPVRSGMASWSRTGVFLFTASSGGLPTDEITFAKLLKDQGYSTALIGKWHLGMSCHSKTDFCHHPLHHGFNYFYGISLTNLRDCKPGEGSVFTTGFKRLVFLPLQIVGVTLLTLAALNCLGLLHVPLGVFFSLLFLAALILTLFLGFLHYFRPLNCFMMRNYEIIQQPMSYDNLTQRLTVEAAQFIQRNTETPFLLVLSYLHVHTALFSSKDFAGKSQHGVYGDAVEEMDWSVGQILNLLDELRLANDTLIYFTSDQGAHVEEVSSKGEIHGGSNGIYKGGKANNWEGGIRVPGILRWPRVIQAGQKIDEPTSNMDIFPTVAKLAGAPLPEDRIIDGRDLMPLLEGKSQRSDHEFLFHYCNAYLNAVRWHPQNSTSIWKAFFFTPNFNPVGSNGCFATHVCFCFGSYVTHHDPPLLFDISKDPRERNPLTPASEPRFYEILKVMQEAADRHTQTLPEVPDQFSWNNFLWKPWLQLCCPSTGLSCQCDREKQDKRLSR

[6] = Group 2 (0.5 mg/day gel): seventh day of treatment; Group 1 (oral tamoxifen): fifth day; cited from earlier work
[7] = test system: benign breast disease; conditions: cited from earlier work

CC/C(=C(\c1ccccc1)c1ccc(OCCN(C)C)cc1)c1ccccc1 [[^3H]-tamoxifen]
time of plateau of radioactivity in blood ([1]; percutaneous application): 2 days

CC/C(=C(\c1ccccc1)c1ccc(OCCN(C)C)cc1)c1ccccc1 [tamoxifen]
Normal Tissue concentration of 4-hydroxy tamoxifen, Mean ± SD [2]: 10215 ± 2151 pg/g | Plasma concentration of 4-hydroxy tamoxifen, Day Pre-Surgery, Mean ± SD [2]: 2.326 ± 0.585 ng/mL | Plasma concentration of 4-hydroxy tamoxifen, Day of Surgery, Mean ± SD [2]: 2.317 ± 1.098 ng/mL | Tumor concentration of 4-hydroxy tamoxifen, Mean ± SD [2]: 12453 ± 3751 pg/g | rat liver carcinogenicity [3]: potent rat liver carcinogen | initiation of apoptosis [4]: initiates apoptosis | retention in the breast ([1]; percutaneous application to the breast): shorter and far weaker | inhibitory effect on estrone sulphatase activity [5]: little or no effect | side effects reported by one person of the group [6]: hot flashes and mild vaginitis | decrease of risk, adenosis ([7]; in vivo): 41% | decrease of risk, cyst ([7]; in vivo): 34% | decrease of risk, duct ectasia ([7]; in vivo): 28% | decrease of risk, fibrocystic disease ([7]; in vivo): 33% | decrease of risk, hyperplasia ([7]; in vivo): 40% | decrease of risk, metaplasia ([7]; in vivo): 49% | reduction of the risk of developing benign breast disease, overall ([7]; in vivo): 28% | reduction of the need for breast biopsies ([7]; women under 50): 41%
